Results: patent US9434727B2, “Substituted 4-phenylpiperidines, their preparation and use” (THE TRUSTEES OF COLUMBIA UNIVERSITY IN THE CITY OF NEW YORK, priority 2014, dated 2016)
Where a name gives a salt, the structure may show the parent alone.

Key:
RBP4 = RBP4 (Homo sapiens (Human), UniProt P02753); assay: Scintillation proximity (SPA) RBP4 binding assay; details: 10 nM 3H-Retinol, 50 nM biotinylated RBP4
Protocol: Scintillation Proximity RBP4 Binding Assay
Untagged human RBP4 purified from urine of tubular proteinuria patients was purchased from Fitzgerald Industries International. It was biotinylated using the EZ-Link Sulfo-NHS-LC-Biotinylation kit from Pierce following the manufacturer's recommendations. Binding experiments were performed in 96-well plates (OptiPlate, PerkinElmer) in a final assay volume of 100 μl per well in SPA buffer (IX PBS, pH 7.4, 1 mM EDTA, 0.1% BSA, 0.5% CHAPS). The reaction mix contained 10 nM ^3H-Retinol (48.7 Ci/mmol; PerkinElmer), 0.3 mg/well Streptavidin-PVT beads, 50 nM biotinylated RBP4 and a test compound. Nonspecific binding was determined in the presence of 20 μM of unlabeled retinol. The reaction mix was assembled in the dark under dim red light. The plates were sealed with clear tape (TopSeal-A: 96-well microplate, PerkinElmer), wrapped in the aluminum foil, and allowed to equilibrate 6 hours at room temperature followed by overnight incubation at +4° C. Radiocounts were measured using a TopCount NXT counter (Packard Instrument Company).

RBP4-TTR interaction = RBP4-TTR interaction (Homo sapiens (Human), UniProt P02753); assay: TR-FRET (HTRF) assay for retinol-induced RBP4-TTR interaction; format: biochemical; details: in the presence of 1 μM retinol; read-out: HTRF assay for antagonists of RBP4-TTR interaction: IC50
Text: TR-FRET assay for retinol-induced RBP4-TTR interaction Binding of a desired RBP4 antagonist displaces retinol and induces hindrance for RBP4-TTR interaction resulting in the decreased FRET signal (FIG. 7). Bacterially expressed MBP-RBP4 and untagged TTR were used in this assay. […] Following cell lysis, recombinant RBP4 was purified from the soluble fraction using the ACTA FPLC system (GE Healthcare) equipped with the 5-ml the MBP Trap HP column. Human untagged TTR was purchased from Calbiochem. Untagged TTR was labeled directly with Eu^3+ Cryptate-NHS using the HTRF Cryptate Labeling kit from CisBio following the manufacturer's recommendations. HTRF assay was performed in white low volume 384 well plates (Greiner-Bio) in a final assay volume of 16 μl per well. The reaction buffer contained 10 mM Tris-HCl pH 7.5, 1 mM DTT, 0.05% NP-40, 0.05% Prionex, 6% glycerol, and 400 mM KF. […] Titration of test compounds in this assay was conducted in the presence of 1 μM retinol. All reactions were assembled in the dark under dim red light and incubated overnight at +4° C. wrapped in aluminum foil. TR-FRET signal was measured in the SpectraMax M5e Multimode Plate Reader (Molecular Device). […] The TR-FRET signal was expressed as the ratio of fluorescence intensity: Flu665/Flu620×10,000.

serum RBP4 = serum RBP4 (Mus musculus (Mouse), UniProt Q00724); assay: Serum RBP4 levels in Abca4−/− mice; format: in vivo; details: 25 mg/kg for 12 weeks, mice starting at 17 weeks old; present-tense paper example
Protocol: The effectiveness of the compounds listed in Table 1 are tested in wild-type and Abca4−/− mice. The Abca4−/− mouse model manifests accelerated accumulation of lipofuscin in the RPE and is considered a pre-clinical efficacy model for a drug reducing lipofuscin accumulation. Compounds are orally dosed for 3 weeks at 30 mg/kg. There is a reduction in the serum RBP4 level in treated animals. The levels of A2E/isoA2E and other bisretinoids are reduced in treated mice.
Abca4−/− mice have A2E levels in the ˜15-19 pmoles/eye range at 17 weeks old. Mice, starting at 17 weeks old, were treated with 25 mg/kg of Compound 81 for 12 weeks.

SMILES	IC50 (RBP4)	IC50 (RBP4-TTR interaction)	serum RBP4 level (serum RBP4)
O=C(c1n[nH]c2c1CNC2)N1CCC(c2ccc(F)c(F)c2C(F)(F)F)CC1 [Compound 38, (4-(3,4-Difluoro-2-(trifluoromethyl)phenyl)piperidin-1-yl)(1,4,5,6-tetrahydropyrrolo[3,4-c]pyrazol-3-yl)methanone Hydrochloride]	26.9 nM	200 nM	significant serum RBP4 reduction
O=C(c1n[nH]c2c1CN(C(=O)N1CCCC1)C2)N1CCC(c2ccc(F)c(F)c2C(F)(F)F)CC1 [Compound 106, (4-(3,4-difluoro-2-(trifluoromethyl)phenyl)piperidin-1-yl)(5-(pyrrolidine-1-carbonyl)-1,4,5,6-tetrahydropyrrolo[3,4-c]pyrazol-3-yl)methanone]	20.4 nM	29.8 nM	
CCC(=O)N1CCc2c(C(=O)N3CCC(c4ccc(F)c(F)c4C(F)(F)F)CC3)n[nH]c2C1 [Compound 122, 1-(3-(4-(3,4-Difluoro-2-(trifluoromethyl)phenyl)piperidine-1-carbonyl)-1,4,5,7-tetrahydro-6H-pyrazolo[3,4-c]pyridin-6-yl)propan-1-one]	17 nM	27.7 nM	
CCC(=O)N1Cc2[nH]nc(C(=O)N3CCC(c4ccc(F)c(F)c4C(F)(F)F)CC3)c2C1 [Compound 84, 1-(3-(4-(3,4-difluoro-2-(trifluoromethyl)phenyl)piperidine-1-carbonyl)pyrrolo[3,4-c]pyrazol-5(1H,4H,6H)-yl)propan-1-one]	16.3 nM	14.7 nM	
CNC(=O)N1Cc2[nH]nc(C(=O)N3CCC(c4ccc(F)c(F)c4C(F)(F)F)CC3)c2C1 [Compound 100, 3-(4-(3,4-difluoro-2-(trifluoromethyl)phenyl)piperidine-1-carbonyl)-N-methyl-4,6-dihydropyrrolo[3,4-c]pyrazole-5(1H)-carboxamide]	19.6 nM	30.3 nM	
N#Cc1ccc2nnc(C(=O)N3CCC(c4c(F)cccc4C(F)(F)F)CC3)n2c1 [Compound 157, 3-(4-(2-fluoro-6-(trifluoromethyl)phenyl)piperidine-1-carbonyl)-[1,2,4]triazolo[4,3-a]pyridine-6-carbonitrile]	5.84 nM	92 nM	
N#Cc1ccc2nnc(C(=O)N3CCC(c4cc(F)cc(F)c4C(F)(F)F)CC3)n2c1 [Compound 132, 3-(4-(3,5-Difluoro-2-(trifluoromethyl)phenyl)piperidine-1-carbonyl)-[1,2,4]triazolo[4,3-a]pyridine-6-carbonitrile]	6.75 nM	10.5 nM	
COC(=O)N1CCc2c(C(=O)N3CCC(c4ccc(F)c(F)c4C(F)(F)F)CC3)n[nH]c2C1 [Compound 116, Methyl 3-(4-(3,4-difluoro-2-(trifluoromethyl)phenyl)piperidine-1-carbonyl)-1,4,5,7-tetrahydro-6H-pyrazolo[3,4-c]pyridine-6-carboxylate]	11.4 nM	23.7 nM	
CNC(=O)N1CCc2[nH]nc(C(=O)N3CCC(c4ccc(F)c(F)c4C(F)(F)F)CC3)c2C1 [Compound 92, 3-(4-(3,4-difluoro-2-(trifluoromethyl)phenyl)piperidine-1-carbonyl)-N-methyl-6,7-dihydro-1H-pyrazolo[4,3-c]pyridine-5(4H)-carboxamide]	10.2 nM	76.6 nM	
O=C(c1n[nH]c2c1CN(C1COC1)CC2)N1CCC(c2ccc(F)c(F)c2C(F)(F)F)CC1 [Compound 89, (4-(3,4-difluoro-2-(trifluoromethyl)phenyl)piperidin-1-yl)(5-(oxetan-3-yl)-4,5,6,7-tetrahydro-1H-pyrazolo[4,3-c]pyridin-3-yl)methanone]	8.84 nM	33 nM	
N#Cc1ccc2nnc(C(=O)N3CCC(c4cc(F)ccc4Cl)CC3)n2c1 [Compound 145, 3-(4-(2-Chloro-5-fluorophenyl)piperidine-1-carbonyl)-[1,2,4]triazolo[4,3-a]pyridine-6-carbonitrile]	7.57 nM	67 nM	
O=C(c1n[nH]c2c1CN(CC(F)(F)F)C2)N1CCC(c2ccc(F)c(F)c2C(F)(F)F)CC1 [Compound 107]	23.4 nM	77 nM	
CS(=O)(=O)N1CCc2[nH]nc(C(=O)N3CCC(c4cccc(F)c4Cl)CC3)c2C1 [Compound 151]	10.3 nM	67.7 nM	
CC(=O)N1CCc2c(C(=O)N3CCC(c4c(F)cccc4C(F)(F)F)CC3)n[nH]c2C1 [Compound 156, 1-(3-(4-(2-fluoro-6-(trifluoromethyl)phenyl)piperidine-1-carbonyl)-4,5-dihydro-1H-pyrazolo[3,4-c]pyridin-6 (7H)-yl) ethanone]	19.4 nM	248 nM	
O=C(c1n[nH]c2c1CN(CC1CC1)CC2)N1CCC(c2cccc(F)c2Cl)CC1 [Compound 164, (4-(2-Chloro-3-fluorophenyl)piperidin-1-yl)(5-(cyclopropylmethyl)-4,5,6,7-tetrahydro-1H-pyrazolo[4,3-c]pyridin-3-yl)methanone]	13.6 nM	75 nM	
CNC(=O)N1CCc2[nH]nc(C(=O)N3CCC(c4cccc(F)c4C(F)(F)F)CC3)c2C1 [Compound 114, 3-(4-(3-Fluoro-2-(trifluoromethyl)phenyl)piperidine-1-carbonyl)-N-methyl-6,7-dihydro-1H-pyrazolo[4,3-c]pyridine-5(4)-carboxamide]	10.3 nM	40.8 nM	
N#Cc1ccc2nnc(C(=O)N3CCC(c4cccc(Cl)c4C(F)(F)F)CC3)n2c1 [Compound 162, 3-(4-(3-Chloro-2-(trifluoromethyl)phenyl)piperidine-1-carbonyl)-[1,2,4]triazolo[4,3-a]pyridine-6-carbonitrile]	4.82 nM	10.7 nM	
COCCN1Cc2[nH]nc(C(=O)N3CCC(c4ccc(F)c(F)c4C(F)(F)F)CC3)c2C1 [Compound 109, (4-(3,4-difluoro-2(trifluoromethyl)phenyl)piperidin-1-yl)(5-(2-methoxyethyl)-1,4,5,6-tetrahydropyrrolo[3,4-c]pyrazol-3-yl)methanone]	14.9 nM	41.9 nM	
O=C(c1ccccc1)N1Cc2[nH]nc(C(=O)N3CCC(c4ccc(F)c(F)c4C(F)(F)F)CC3)c2C1 [Compound 102, (5-benzoyl-1,4,5,6-tetrahydropyrrolo[3,4-c]pyrazol-3-yl)(4-(3,4-difluoro-2-(trifluoromethyl)phenyl)piperidin-1-yl)methanone]	21.7 nM	27.6 nM	
CCN1Cc2[nH]nc(C(=O)N3CCC(c4ccc(F)c(F)c4C(F)(F)F)CC3)c2C1 [Compound 96, (4-(3,4-difluoro-2(trifluoromethyl)phenyl)piperidin-1-yl)(5-ethyl-1,4,5,6-tetrahydropyrrolo[3,4-c]pyrazol-3-yl)methanone]	12.7 nM	26.5 nM	
O=C(c1n[nH]c2c1CCN(C1COC1)C2)N1CCC(c2ccc(F)c(F)c2C(F)(F)F)CC1 [Compound 117, (4-(3,4-Difluoro-2-(trifluoromethyl)phenyl)piperidin-1-yl)(6-(oxetan-3-yl)-4,5,6,7-tetrahydro-1H-pyrazolo[3,4-c]pyridin-3-yl)methanone]	5.48 nM	37.7 nM	
O=C(c1n[nH]c2c1CN(CCC(F)(F)F)CC2)N1CCC(c2ccc(F)c(F)c2C(F)(F)F)CC1 [Compound 93, (4-(3,4-difluoro-2-(trifluoromethyl)phenyl)piperidin-1-yl)(5-(3,3,3-trifluoropropyl)-4,5,6,7-tetrahydro-1H-pyrazolo[4,3-c]pyridin-3-yl)methanone]	8 nM	33.6 nM	
CC(C)CC(=O)N1CCc2c(C(=O)N3CCC(c4ccc(F)c(F)c4C(F)(F)F)CC3)n[nH]c2C1 [Compound 123, 1-(3-(4-(3,4-Difluoro-2-(trifluoromethyl)phenyl)piperidine-1-carbonyl)-1,4,5,7-tetrahydro-6H-pyrazolo[3,4-c]pyridin-6-yl)-3-methylbutan-1-one]	15.1 nM	52.2 nM	
